Assay: Stability of cannabinoid compounds and Vitamin E components in Beverage 2 (AB Red) by LCMSMS
Type: physicochemical

## CCCCCc1cc(O)c2c(c1)OC1(C)CCC3C1C2C3(C)C (centres unmarked) [CBL, cannabicyclol]
Stored at 8° C., 0 days
  Stability of Plant-Derived Cannabinoid Compounds in AB Red: 0.510 µg/mL
Stored at 8° C., 1 days
  Stability of Plant-Derived Cannabinoid Compounds in AB Red: 0.512 µg/mL
Stored at 8° C., 2 days
  Stability of Plant-Derived Cannabinoid Compounds in AB Red: 0.508 µg/mL
Stored at 8° C., 3 days
  Stability of Plant-Derived Cannabinoid Compounds in AB Red: 0.499 µg/mL
Stored at 8° C., 5 days
  Stability of Plant-Derived Cannabinoid Compounds in AB Red: 0.501 µg/mL
Stored at 8° C., 8 days
  Stability of Plant-Derived Cannabinoid Compounds in AB Red: 0.496 µg/mL
Stored at 8° C., 9 days
  Stability of Plant-Derived Cannabinoid Compounds in AB Red: 0.496 µg/mL
Stored at 8° C., 10 days
  Stability of Plant-Derived Cannabinoid Compounds in AB Red: 0.505 µg/mL
Stored at 8° C., 11 days
  Stability of Plant-Derived Cannabinoid Compounds in AB Red: 0.501 µg/mL
Stored at 8° C., 12 days
  Stability of Plant-Derived Cannabinoid Compounds in AB Red: 0.499 µg/mL
Stored at 8° C., 15 days
  Stability of Plant-Derived Cannabinoid Compounds in AB Red: 0.510 µg/mL
Stored at 8° C., 16 days
  Stability of Plant-Derived Cannabinoid Compounds in AB Red: 0.502 µg/mL
Stored at 8° C., 17 days
  Stability of Plant-Derived Cannabinoid Compounds in AB Red: 0.514 µg/mL
Stored at 8° C., 18 days
  Stability of Plant-Derived Cannabinoid Compounds in AB Red: 0.513 µg/mL
Stored at 8° C., 19 days
  Stability of Plant-Derived Cannabinoid Compounds in AB Red: 0.510 µg/mL
Stored at 8° C., 22 days
  Stability of Plant-Derived Cannabinoid Compounds in AB Red: 0.495 µg/mL
Stored at 8° C., 23 days
  Stability of Plant-Derived Cannabinoid Compounds in AB Red: 0.502 µg/mL
Stored at 8° C., 24 days
  Stability of Plant-Derived Cannabinoid Compounds in AB Red: 0.508 µg/mL
Stored at 8° C., 25 days
  Stability of Plant-Derived Cannabinoid Compounds in AB Red: 0.510 µg/mL
Stored at 8° C., 26 days
  Stability of Plant-Derived Cannabinoid Compounds in AB Red: 0.502 µg/mL
Stored at 8° C., 29 days
  Stability of Plant-Derived Cannabinoid Compounds in AB Red: 0.511 µg/mL
Stored at 8° C., 30 days
  Stability of Plant-Derived Cannabinoid Compounds in AB Red: 0.511 µg/mL
Stored at 8° C., 60 days
  Stability of Plant-Derived Cannabinoid Compounds in AB Red: 0.491 µg/mL
Stored at 8° C., 90 days
  Stability of Plant-Derived Cannabinoid Compounds in AB Red: 0.501 µg/mL
Stored at 8° C., 120 days
  Stability of Plant-Derived Cannabinoid Compounds in AB Red: 0.488 µg/mL
Stored at 8° C., 150 days
  Stability of Plant-Derived Cannabinoid Compounds in AB Red: 0.501 µg/mL
Stored at 8° C., 180 days
  Stability of Plant-Derived Cannabinoid Compounds in AB Red: 0.506 µg/mL
Stored at 8° C., 210 days
  Stability of Plant-Derived Cannabinoid Compounds in AB Red: 0.490 µg/mL
Stored at 8° C., 240 days
  Stability of Plant-Derived Cannabinoid Compounds in AB Red: 0.490 µg/mL
Stored at 8° C., 270 days
  Stability of Plant-Derived Cannabinoid Compounds in AB Red: 0.504 µg/mL
Stored at 8° C., 300 days
  Stability of Plant-Derived Cannabinoid Compounds in AB Red: 0.489 µg/mL
Stored at 8° C., 330 days
  Stability of Plant-Derived Cannabinoid Compounds in AB Red: 0.505 µg/mL
Stored at 8° C., 360 days
  Stability of Plant-Derived Cannabinoid Compounds in AB Red: 0.495 µg/mL
Stored at 8° C., 390 days
  Stability of Plant-Derived Cannabinoid Compounds in AB Red: 0.491 µg/mL
Stored at 8° C., 420 days
  Stability of Plant-Derived Cannabinoid Compounds in AB Red: 0.494 µg/mL
Stored at 8° C., 450 days
  Stability of Plant-Derived Cannabinoid Compounds in AB Red: 0.492 µg/mL
Stored at 8° C., 480 days
  Stability of Plant-Derived Cannabinoid Compounds in AB Red: 0.487 µg/mL
Stored at 8° C., 510 days
  Stability of Plant-Derived Cannabinoid Compounds in AB Red: 0.468 µg/mL
Stored at 8° C., 540 days
  Stability of Plant-Derived Cannabinoid Compounds in AB Red: 0.470 µg/mL
Stored at 8° C., 570 days
  Stability of Plant-Derived Cannabinoid Compounds in AB Red: 0.469 µg/mL
Stored at 21-25° C., 0 days
  Stability of Plant-Derived Cannabinoid Compounds in AB Red: 0.51 µg/mL
Stored at 21-25° C., 1 days
  Stability of Plant-Derived Cannabinoid Compounds in AB Red: 0.50 µg/mL
Stored at 21-25° C., 2 days
  Stability of Plant-Derived Cannabinoid Compounds in AB Red: 0.50 µg/mL
Stored at 21-25° C., 3 days
  Stability of Plant-Derived Cannabinoid Compounds in AB Red: 0.50 µg/mL
Stored at 21-25° C., 5 days
  Stability of Plant-Derived Cannabinoid Compounds in AB Red: 0.51 µg/mL
Stored at 21-25° C., 8 days
  Stability of Plant-Derived Cannabinoid Compounds in AB Red: 0.50 µg/mL
Stored at 21-25° C., 9 days
  Stability of Plant-Derived Cannabinoid Compounds in AB Red: 0.51 µg/mL
Stored at 21-25° C., 10 days
  Stability of Plant-Derived Cannabinoid Compounds in AB Red: 0.50 µg/mL
Stored at 21-25° C., 11 days
  Stability of Plant-Derived Cannabinoid Compounds in AB Red: 0.50 µg/mL
Stored at 21-25° C., 12 days
  Stability of Plant-Derived Cannabinoid Compounds in AB Red: 0.50 µg/mL
Stored at 21-25° C., 15 days
  Stability of Plant-Derived Cannabinoid Compounds in AB Red: 0.50 µg/mL
Stored at 21-25° C., 16 days
  Stability of Plant-Derived Cannabinoid Compounds in AB Red: 0.51 µg/mL
Stored at 21-25° C., 17 days
  Stability of Plant-Derived Cannabinoid Compounds in AB Red: 0.51 µg/mL
Stored at 21-25° C., 18 days
  Stability of Plant-Derived Cannabinoid Compounds in AB Red: 0.50 µg/mL
Stored at 21-25° C., 19 days
  Stability of Plant-Derived Cannabinoid Compounds in AB Red: 0.49 µg/mL
Stored at 21-25° C., 22 days
  Stability of Plant-Derived Cannabinoid Compounds in AB Red: 0.49 µg/mL
Stored at 21-25° C., 23 days
  Stability of Plant-Derived Cannabinoid Compounds in AB Red: 0.51 µg/mL
Stored at 21-25° C., 24 days
  Stability of Plant-Derived Cannabinoid Compounds in AB Red: 0.50 µg/mL
Stored at 21-25° C., 25 days
  Stability of Plant-Derived Cannabinoid Compounds in AB Red: 0.51 µg/mL
Stored at 21-25° C., 26 days
  Stability of Plant-Derived Cannabinoid Compounds in AB Red: 0.51 µg/mL
Stored at 21-25° C., 29 days
  Stability of Plant-Derived Cannabinoid Compounds in AB Red: 0.49 µg/mL
Stored at 21-25° C., 30 days
  Stability of Plant-Derived Cannabinoid Compounds in AB Red: 0.51 µg/mL
Stored at 21-25° C., 60 days
  Stability of Plant-Derived Cannabinoid Compounds in AB Red: 0.50 µg/mL
Stored at 21-25° C., 90 days
  Stability of Plant-Derived Cannabinoid Compounds in AB Red: 0.49 µg/mL
Stored at 21-25° C., 120 days
  Stability of Plant-Derived Cannabinoid Compounds in AB Red: 0.50 µg/mL
Stored at 21-25° C., 150 days
  Stability of Plant-Derived Cannabinoid Compounds in AB Red: 0.49 µg/mL
Stored at 21-25° C., 180 days
  Stability of Plant-Derived Cannabinoid Compounds in AB Red: 0.50 µg/mL
Stored at 21-25° C., 210 days
  Stability of Plant-Derived Cannabinoid Compounds in AB Red: 0.49 µg/mL
Stored at 21-25° C., 240 days
  Stability of Plant-Derived Cannabinoid Compounds in AB Red: 0.49 µg/mL
Stored at 21-25° C., 270 days
  Stability of Plant-Derived Cannabinoid Compounds in AB Red: 0.49 µg/mL
Stored at 21-25° C., 300 days
  Stability of Plant-Derived Cannabinoid Compounds in AB Red: 0.50 µg/mL
Stored at 21-25° C., 330 days
  Stability of Plant-Derived Cannabinoid Compounds in AB Red: 0.50 µg/mL
Stored at 21-25° C., 360 days
  Stability of Plant-Derived Cannabinoid Compounds in AB Red: 0.49 µg/mL
Stored at 21-25° C., 390 days
  Stability of Plant-Derived Cannabinoid Compounds in AB Red: 0.49 µg/mL
Stored at 21-25° C., 420 days
  Stability of Plant-Derived Cannabinoid Compounds in AB Red: 0.48 µg/mL
Stored at 21-25° C., 450 days
  Stability of Plant-Derived Cannabinoid Compounds in AB Red: 0.49 µg/mL
Stored at 21-25° C., 480 days
  Stability of Plant-Derived Cannabinoid Compounds in AB Red: 0.48 µg/mL
Stored at 21-25° C., 510 days
  Stability of Plant-Derived Cannabinoid Compounds in AB Red: 0.47 µg/mL
Stored at 21-25° C., 540 days
  Stability of Plant-Derived Cannabinoid Compounds in AB Red: 0.47 µg/mL
Stored at 21-25° C., 570 days
  Stability of Plant-Derived Cannabinoid Compounds in AB Red: 0.47 µg/mL
